Experiments:
Assay type in all cases: physicochemical
[1] = solubility in water at room temperature; details: for Biopharmaceutics Classification System class: classified from low water solubility; for solubility: water, 24 °C, 22-26° C.
[2] = impurity profile by HPLC prior and after gamma irradiation
[3] = Particle Size Distribution (Malvern MasterSizer, laser diffraction)
Experimental: The mean particle size distribution is preferably obtained by laser diffraction. During a laser diffraction measurement a laser beam passes through a dispersed particulate sample and the angular variation in intensity of the scattered light is measured. Large particles scatter light at small angles relative to the laser beam and small particles scatter light at large angles. The angular scattering intensity data is then analyzed to calculate the size of the particles that created the scattering pattern using the Mie theory of light scattering. The particle size is reported as a volume equivalent sphere diameter. The folded optical design in the Mastersizer 3000 (from Malvern Panalytical), which was in particular used for the measurements provides a particle size measurement range from 10 nm up to 3.5 mm using a single optical measurement path. The Mastersizer 3000 uses a sequential combination of measurements with red and blue light sources to measure across the entire particle size range.
In some embodiments, the PSD (Particle Size Distribution) of the pharmaceutically active agent was measured with a Malvern MasterSizer 2000 or 3000 (in water as dispersion medium, stirrer speed 1500 rpm, Mie presentation) to give the following results (table 11). […] Some of the grinded batches are reported with the full PSD profile in FIG. 5: […]

[4] = Gamma irradiated at 49.6 KGy under dry ice
[5] = FIG. 5 lower illustration, micronized sample, jet mill
[6] = FIG. 5 middle illustration, manual grinded sample
[7] = FIG. 5 upper illustration, manual grinded sample

Which “Biopharmaceutics Classification System class” value [1] does the source give for `O=C(NCc1cccc(S(F)(F)(F)(F)F)c1)[C@H]1C[C@@H]2CC[C@H]1C2` (racemic) [Compound A, (1SR,2SR,4RS)-N-(3-(pentafluoro-λ6-sulfanyl)benzyl)bicyclo[2.2.1]heptane-2-carboxamide] here?
The value was “BCS class II”.

And the solubility [1]?
Its solubility is less than 1000 µg/mL.

Which “Biopharmaceutics Classification System class” value [1] does the source give for `O=C(NCc1cccc(S(F)(F)(F)(F)F)c1)[C@H]1C[C@@H]2CC[C@H]1C2` [Compound B, (1S,2S,4R)-N-(3-(pentafluoro-λ6-sulfaneyl)benzyl)bicyclo[2.2.1]heptane-2-carboxamide] here?
The value was “BCS class II”.

And the solubility [1]?
The solubility was less than 1000 µg/mL.

And the “*Imp. 8. rel.tR = 0.95” value ([2]; Gamma irradiated at 49.6 KGy)?
The value was 3.29 Area %.

What about the “Imp. 1. rel.tR = 0.22” value ([2]; Gamma irradiated at 49.6 KGy) of the same molecule?
Its value is 0.11 Area %.

What about the “Imp. 2. rel.tR = 0.37” value ([2]; Gamma irradiated at 49.6 KGy) of the same molecule?
The value was 0.11 Area %.

What about the “Imp. 3. rel.tR = 0.48” value ([2]; Gamma irradiated at 49.6 KGy) of the same molecule?
Its value is 0.24 Area %.

What about the “Imp. 4. rel.tR = 0.52” value ([2]; Gamma irradiated at 49.6 KGy) of the same molecule?
The value was 0.12 Area %.

What about the “Imp. 5. rel.tR = 0.54” value ([2]; Gamma irradiated at 49.6 KGy) of the same molecule?
Its value is 0.08 Area %.

And the “Imp. 6. rel.tR = 0.58” value ([2]; Gamma irradiated at 49.6 KGy)?
The value was 0.14 Area %.

And the “Imp. 7. rel.tR = 0.71” value ([2]; Gamma irradiated at 49.6 KGy)?
The value was 0.39 Area %.

What about the “Imp. 9. rel.tR = 1.27” value ([2]; Gamma irradiated at 49.6 KGy) of the same molecule?
Its value is 0.32 Area %.

What about the “Imp. 10. rel.tR = 1.80” value ([2]; Gamma irradiated at 49.6 KGy) of the same molecule?
Its value is 0.06 Area %.

What about the Sum of impurities ([2]; Gamma irradiated at 49.6 KGy) of the same molecule?
The Sum of impurities was 4.86 Area %.

What about the “impurity Increase compared to initial” value ([2]; Gamma irradiated at 49.6 KGy) of the same molecule?
Its value is “+1.25 Area %”.

And the “*Imp. 8. rel.tR = 0.95” value [2, 4]?
The value was 3.35 Area %.

And the “Imp. 1. rel.tR = 0.22” value [2, 4]?
The value was 0.23 Area %.

And the “Imp. 2. rel.tR = 0.37” value [2, 4]?
The value was 0.03 Area %.

And the “Imp. 3. rel.tR = 0.48” value [2, 4]?
Its value is 0.12 Area %.

And the “Imp. 4. rel.tR = 0.52” value [2, 4]?
The value was 0.12 Area %.

And the “Imp. 5. rel.tR = 0.54” value [2, 4]?
Its value is 0.05 Area %.

What about the “Imp. 6. rel.tR = 0.58” value [2, 4] of the same molecule?
The value was 0.15 Area %.

And the “Imp. 7. rel.tR = 0.71” value [2, 4]?
The value was 0.34 Area %.

What about the “Imp. 9. rel.tR = 1.27” value [2, 4] of the same molecule?
Its value is 0.20 Area %.

What about the Sum of impurities [2, 4] of the same molecule?
The Sum of impurities was 4.59 Area %.

What about the “impurity Increase compared to initial” value [2, 4] of the same molecule?
The value was “+0.98 Area %”.

And the “*Imp. 8. rel.tR = 0.95” value ([2]; Initial API)?
Its value is 3.48 Area %.

And the “Imp. 3. rel.tR = 0.48” value ([2]; Initial API)?
Its value is 0.13 Area %.

What about the “Imp. 4. rel.tR = 0.52” value ([2]; Initial API) of the same molecule?
The value was less than 0.05 Area %.

What about the “Imp. 7. rel.tR = 0.71” value ([2]; Initial API) of the same molecule?
Its value is less than 0.05 Area %.

And the Sum of impurities ([2]; Initial API)?
The Sum of impurities was 3.61 Area %.

What about the “effect of gamma irradiation on the quality of the active ingredient” value ([2]; standard conditions, dry ice used for cooling) of the same molecule?
The value was “only minor effects”.

And the d10 [3, 5]?
The d10 was 3.4 microns.

What about the d50 [3, 5] of the same molecule?
Its d50 is 12.4 microns.

And the d90 [3, 5]?
The d90 was 26.3 microns.

And the d10 [3, 6]?
The d10 was 6.5 microns.

What about the d50 [3, 6] of the same molecule?
Its d50 is 32 microns.

What about the d90 [3, 6] of the same molecule?
The d90 was 72 microns.

And the d10 [3, 7]?
Its d10 is 4.4 microns.

And the d50 [3, 7]?
Its d50 is 18 microns.

What about the d90 [3, 7] of the same molecule?
Its d90 is 44 microns.

What about the “PSD of the active ingredient in the non-aqueous gel composition” value ([3]; in the gel versus after grinding) of the same molecule?
Its value is “remained unchanged”.
